Measured values reported in ChEMBL document CHEMBL1146636, “Synthesis and in vitro activity of novel isoxazolyl tetrahydropyridinyl oxazolidinone antibacterial agents” (2003).
In brackets after ≈: the same amount, converted by molar mass.

Tests used:
Type in all cases: functional
Enterococcus faecium [1] = assay: In vitro antibacterial activity against vancomycin-resistant Enterococcus faecium 2164 (VRE.3)
Enterococcus faecalis [2] = assay: In vitro antibacterial activity against Enterococcus faecalis 29212A (E.f.1)
Enterococcus faecalis [3] = assay: In vitro antibacterial activity against Enterococcus faecalis EFS008 (E.f.2)
Enterococcus faecium [4] = assay: In vitro antibacterial activity against vancomycin-resistant Enterococcus faecium (VRE.1)
Enterococcus faecium [5] = assay: In vitro antibacterial activity against vancomycin-resistant Enterococcus faecium 2006 (VRE.2)
Staphylococcus aureus [6] = assay: In vitro antibacterial activity against Staphylococcus aureus 77 (S.a.2)
Staphylococcus aureus [7] = assay: In vitro antibacterial activity against Staphylococcus aureus 29213A (S.a.3)
Staphylococcus aureus [8] = assay: In vitro antibacterial activity against Staphylococcus aureus 6538p (S.a.1)
Staphylococcus aureus [9] = assay: In vitro antibacterial activity against methicillin-resistant Staphylococcus aureus 241 (MRSA)
[10] = test system: Staphylococcus epidermidis; assay: In vitro antibacterial activity against Staphylococcus epidermidis Q004 (S.e.1)
[11] = test system: Staphylococcus epidermidis; assay: In vitro antibacterial activity against Staphylococcus epidermidisMR 887E (S. e. MR)

| Compound | MIC (Enterococcus faecium [1]) [µg/mL] | MIC (Enterococcus faecalis [2]) [µg/mL] | MIC (Enterococcus faecalis [3]) [µg/mL] | MIC (Enterococcus faecium [4]) [µg/mL] | MIC (Enterococcus faecium [5]) [µg/mL] | MIC (Staphylococcus aureus [6]) [µg/mL] | MIC (Staphylococcus aureus [7]) [µg/mL] | MIC (Staphylococcus aureus [8]) [µg/mL] | MIC (Staphylococcus aureus [9]) [µg/mL] | MIC [10] [µg/mL] | MIC [11] [µg/mL] |
| --- | --- | --- | --- | --- | --- | --- | --- | --- | --- | --- | --- |
| CC(=O)NC[C@H]1CN(c2ccc(N3CC=C(c4oncc4C)CC3)c(F)c2)C(=O)O1 | 2 (≈ 4.83 µM) | 4 (≈ 9.65 µM) | 4 (≈ 9.65 µM) | 2 (≈ 4.83 µM) | 2 (≈ 4.83 µM) | 1 (≈ 2.41 µM) | 4 (≈ 9.65 µM) | 2 (≈ 4.83 µM) | 2 (≈ 4.83 µM) | 1 (≈ 2.41 µM) | 2 (≈ 4.83 µM) |
| CC(=O)NC[C@H]1CN(c2ccc(N3CC=C(c4oncc4C(N)=O)CC3)c(F)c2)C(=O)O1 | 1 (≈ 2.26 µM) | 1 (≈ 2.26 µM) | 1 (≈ 2.26 µM) | 1 (≈ 2.26 µM) | 1 (≈ 2.26 µM) | 0.5 (≈ 1.13 µM) | 0.5 (≈ 1.13 µM) | 0.5 (≈ 1.13 µM) | 0.5 (≈ 1.13 µM) | 0.5 (≈ 1.13 µM) | 1 (≈ 2.26 µM) |
| CN[C@H](CC(C)C)C(=O)N[C@H]1C(=O)N[C@@H](CC(N)=O)C(=O)N[C@H]2C(=O)N[C@H]3C(=O)N[C@H](C(=O)N[C@H](C(=O)O)c4cc(O)cc(O)c4-c4cc3ccc4O)[C@H](O)c3ccc(c(Cl)c3)Oc3cc2cc(c3O[C@@H]2O[C@H](CO)[C@@H](O)[C@H](O)[C@H]2O[C@H]2C[C@](C)(N)[C@H](O)[C@H](C)O2)Oc2ccc(cc2Cl)[C@H]1O [VANCOMYCIN] | > 64 | – | – | 64 (≈ 44.2 µM) | > 64 | – | – | – | – | – | – |
| CC(=O)NC[C@H]1CN(c2ccc(N3CC=C(c4oncc4C(F)(F)F)CC3)c(F)c2)C(=O)O1 | > 64 | > 64 | > 64 | > 64 | > 64 | > 64 | > 64 | > 64 | – | > 64 | > 64 |
| CC(=O)NC[C@H]1CN(c2ccc(N3CC=C(c4oncc4C(=O)N(C)C)CC3)c(F)c2)C(=O)O1 | 8 (≈ 17 µM) | 8 (≈ 17 µM) | 8 (≈ 17 µM) | 8 (≈ 17 µM) | 8 (≈ 17 µM) | 8 (≈ 17 µM) | 4 (≈ 8.48 µM) | 4 (≈ 8.48 µM) | 8 (≈ 17 µM) | 2 (≈ 4.24 µM) | 8 (≈ 17 µM) |
| CC(=O)NC[C@H]1CN(c2ccc(N3CC=C(c4conc4C#N)CC3)c(F)c2)C(=O)O1 | 2 (≈ 4.7 µM) | 2 (≈ 4.7 µM) | 2 (≈ 4.7 µM) | 2 (≈ 4.7 µM) | 2 (≈ 4.7 µM) | 1 (≈ 2.35 µM) | 2 (≈ 4.7 µM) | 1 (≈ 2.35 µM) | 1 (≈ 2.35 µM) | 0.5 (≈ 1.18 µM) | 4 (≈ 9.4 µM) |
| CC(=O)NC[C@H]1CN(c2ccc(N3CC=C(c4conc4Cl)CC3)c(F)c2)C(=O)O1 | 8 (≈ 18.4 µM) | 8 (≈ 18.4 µM) | 8 (≈ 18.4 µM) | 8 (≈ 18.4 µM) | 8 (≈ 18.4 µM) | 2 (≈ 4.6 µM) | 8 (≈ 18.4 µM) | 2 (≈ 4.6 µM) | 2 (≈ 4.6 µM) | 2 (≈ 4.6 µM) | 8 (≈ 18.4 µM) |
| CCOC(=O)c1cnoc1C1=CCN(c2ccc(N3C[C@H](CNC(C)=O)OC3=O)cc2F)CC1 | 8 (≈ 16.9 µM) | 16 (≈ 33.9 µM) | 8 (≈ 16.9 µM) | 16 (≈ 33.9 µM) | 8 (≈ 16.9 µM) | 4 (≈ 8.47 µM) | 4 (≈ 8.47 µM) | 8 (≈ 16.9 µM) | 4 (≈ 8.47 µM) | 4 (≈ 8.47 µM) | 16 (≈ 33.9 µM) |
| CC(=O)NC[C@H]1CN(c2ccc(N3CC=C(c4oncc4C#N)CC3)c(F)c2)C(=O)O1 | 4 (≈ 9.4 µM) | 4 (≈ 9.4 µM) | 4 (≈ 9.4 µM) | 4 (≈ 9.4 µM) | 4 (≈ 9.4 µM) | 1 (≈ 2.35 µM) | 4 (≈ 9.4 µM) | 2 (≈ 4.7 µM) | 2 (≈ 4.7 µM) | 1 (≈ 2.35 µM) | 4 (≈ 9.4 µM) |
| CC(=O)NC[C@H]1CN(c2ccc(N3CCOCC3)c(F)c2)C(=O)O1 [LINEZOLID] | 2 (≈ 5.93 µM) | – | – | 2 (≈ 5.93 µM) | 2 (≈ 5.93 µM) | 0.5 (≈ 1.48 µM) | – | 0.5 (≈ 1.48 µM) | 0.5 (≈ 1.48 µM) | 0.5 (≈ 1.48 µM) | 1 (≈ 2.96 µM) |
| CC(=O)NC[C@H]1CN(c2ccc(N3CC=C(c4oncc4Cl)CC3)c(F)c2)C(=O)O1 | 32 (≈ 73.6 µM) | 64 (≈ 147 µM) | 64 (≈ 147 µM) | 32 (≈ 73.6 µM) | 32 (≈ 73.6 µM) | 8 (≈ 18.4 µM) | 32 (≈ 73.6 µM) | 8 (≈ 18.4 µM) | 4 (≈ 9.2 µM) | 8 (≈ 18.4 µM) | 16 (≈ 36.8 µM) |
